{"source": "the supplement of paper PMC10307832", "test_in_all_cases": "relative viability (nuclei count vs DMSO), 5 days (fraction); higher = more cells survive", "key": {"A-427": {"tested_on": "A-427", "in_short": "(§1)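 Lung cancer cell lines were pin-tool dosed in 1536-well plates on the day after seeding, with either a lone drug or a fixed anchor-drug dose plus five library-drug doses (not always all listed) in √10 steps. Nuclei were counted on 4× images after 5 days. Relative viability is the ratio of treated-well to vehicle-well nuclei counts, with each value a median of duplicate plates.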"}, "NCI-H1915": {"tested_on": "NCI-H1915", "in_short": "as §1"}, "201T": {"tested_on": "201T", "in_short": "as §1"}, "NCI-H596": {"tested_on": "NCI-H596", "in_short": "as §1"}, "NCI-H1793": {"tested_on": "NCI-H1793", "in_short": "as §1"}, "LXF-289": {"tested_on": "LXF-289", "in_short": "as §1"}, "EMC-BAC-2": {"tested_on": "EMC-BAC-2", "in_short": "as §1"}, "HCC-827": {"tested_on": "HCC-827", "in_short": "as §1"}, "BEN": {"tested_on": "BEN", "in_short": "as §1"}, "NCI-H2126": {"tested_on": "NCI-H2126", "in_short": "as §1"}, "EPLC-272H": {"tested_on": "EPLC-272H", "in_short": "as §1"}, "NCI-H358": {"tested_on": "NCI-H358", "in_short": "as §1"}, "COR-L23": {"tested_on": "COR-L23", "in_short": "as §1"}, "EKVX": {"tested_on": "EKVX", "in_short": "as §1"}, "NCI-H460": {"tested_on": "NCI-H460", "in_short": "as §1"}, "LCLC-103H": {"tested_on": "LCLC-103H", "in_short": "as §1"}, "LK-2": {"tested_on": "LK-2", "in_short": "as §1"}, "NCI-H1650": {"tested_on": "NCI-H1650", "in_short": "as §1"}, "NCI-H2087": {"tested_on": "NCI-H2087", "in_short": "as §1"}, "NCI-H1651": {"tested_on": "NCI-H1651", "in_short": "as §1"}, "SW 1573": {"tested_on": "SW 1573", "in_short": "as §1"}, "NCI-H2347": {"tested_on": "NCI-H2347", "in_short": "as §1"}, "HCC-44": {"tested_on": "HCC-44", "in_short": "as §1"}}}
{"smiles": "Cc1cnc(-c2cnc(NCCNc3ccc(C#N)cn3)nc2-c2ccc(Cl)cc2Cl)[nH]1", "note": "+ O=C(c1cc(Cc2n[nH]c(=O)c3ccccc23)ccc1F)N1CCN(C(=O)C2CC2)CC1 [Olaparib] (partner 8 µM)", "values": [{"measurement": "relative viability", "setting": "A-427; first compound 0.08 µM", "result": 0.759}, {"measurement": "relative viability", "setting": "A-427; first compound 0.253 µM", "result": 0.711}, {"measurement": "relative viability", "setting": "A-427; first compound 0.8 µM", "result": 0.822}, {"measurement": "relative viability", "setting": "A-427; first compound 2.53 µM", "result": 0.743}, {"measurement": "relative viability", "setting": "NCI-H1915; first compound 0.08 µM", "result": 0.253}, {"measurement": "relative viability", "setting": "NCI-H1915; first compound 0.8 µM", "result": 0.264}, {"measurement": "relative viability", "setting": "NCI-H1915; first compound 2.53 µM", "result": 0.239}, {"measurement": "relative viability", "setting": "201T; first compound 0.08 µM", "result": 0.848}, {"measurement": "relative viability", "setting": "201T; first compound 0.8 µM", "result": 0.81}, {"measurement": "relative viability", "setting": "201T; first compound 2.53 µM", "result": 0.834}, {"measurement": "relative viability", "setting": "NCI-H596; first compound 0.08 µM", "result": 1.09}, {"measurement": "relative viability", "setting": "NCI-H596; first compound 0.253 µM", "result": 0.736}, {"measurement": "relative viability", "setting": "NCI-H596; first compound 0.8 µM", "result": 0.775}, {"measurement": "relative viability", "setting": "NCI-H596; first compound 2.53 µM", "result": 0.724}, {"measurement": "relative viability", "setting": "NCI-H1793; first compound 0.08 µM", "result": 1.01}, {"measurement": "relative viability", "setting": "NCI-H1793; first compound 0.253 µM", "result": 0.755}, {"measurement": "relative viability", "setting": "NCI-H1793; first compound 0.8 µM", "result": 0.957}, {"measurement": "relative viability", "setting": "NCI-H1793; first compound 2.53 µM", "result": 0.867}, {"measurement": "relative viability", "setting": "LXF-289; first compound 0.08 µM", "result": 1.04}, {"measurement": "relative viability", "setting": "LXF-289; first compound 0.253 µM", "result": 1}, {"measurement": "relative viability", "setting": "LXF-289; first compound 0.8 µM", "result": 1.11}, {"measurement": "relative viability", "setting": "LXF-289; first compound 2.53 µM", "result": 1.11}, {"measurement": "relative viability", "setting": "EMC-BAC-2; first compound 0.08 µM", "result": 0.498}, {"measurement": "relative viability", "setting": "EMC-BAC-2; first compound 0.253 µM", "result": 0.466}, {"measurement": "relative viability", "setting": "EMC-BAC-2; first compound 0.8 µM", "result": 0.504}, {"measurement": "relative viability", "setting": "EMC-BAC-2; first compound 2.53 µM", "result": 0.397}, {"measurement": "relative viability", "setting": "HCC-827; first compound 0.08 µM", "result": 0.582}, {"measurement": "relative viability", "setting": "HCC-827; first compound 0.253 µM", "result": 0.514}, {"measurement": "relative viability", "setting": "HCC-827; first compound 0.8 µM", "result": 0.572}, {"measurement": "relative viability", "setting": "HCC-827; first compound 2.53 µM", "result": 0.561}, {"measurement": "relative viability", "setting": "BEN; first compound 0.08 µM", "result": 1.17}, {"measurement": "relative viability", "setting": "BEN; first compound 0.253 µM", "result": 1.04}, {"measurement": "relative viability", "setting": "BEN; first compound 0.8 µM", "result": 0.973}, {"measurement": "relative viability", "setting": "BEN; first compound 2.53 µM", "result": 0.978}, {"measurement": "relative viability", "setting": "NCI-H2126; first compound 0.08 µM", "result": 0.922}, {"measurement": "relative viability", "setting": "NCI-H2126; first compound 0.253 µM", "result": 0.908}, {"measurement": "relative viability", "setting": "NCI-H2126; first compound 0.8 µM", "result": 0.89}, {"measurement": "relative viability", "setting": "NCI-H2126; first compound 2.53 µM", "result": 0.898}, {"measurement": "relative viability", "setting": "EPLC-272H; first compound 0.08 µM", "result": 0.731}, {"measurement": "relative viability", "setting": "EPLC-272H; first compound 0.253 µM", "result": 0.779}, {"measurement": "relative viability", "setting": "EPLC-272H; first compound 0.8 µM", "result": 0.739}, {"measurement": "relative viability", "setting": "EPLC-272H; first compound 2.53 µM", "result": 0.666}, {"measurement": "relative viability", "setting": "NCI-H358; first compound 0.08 µM", "result": 0.578}, {"measurement": "relative viability", "setting": "NCI-H358; first compound 0.253 µM", "result": 0.522}, {"measurement": "relative viability", "setting": "NCI-H358; first compound 0.8 µM", "result": 0.555}, {"measurement": "relative viability", "setting": "NCI-H358; first compound 2.53 µM", "result": 0.517}, {"measurement": "relative viability", "setting": "COR-L23; first compound 0.08 µM", "result": 0.379}, {"measurement": "relative viability", "setting": "COR-L23; first compound 0.253 µM", "result": 0.314}, {"measurement": "relative viability", "setting": "COR-L23; first compound 0.8 µM", "result": 0.343}, {"measurement": "relative viability", "setting": "COR-L23; first compound 2.53 µM", "result": 0.261}, {"measurement": "relative viability", "setting": "EKVX; first compound 0.08 µM", "result": 0.939}, {"measurement": "relative viability", "setting": "EKVX; first compound 0.253 µM", "result": 0.814}, {"measurement": "relative viability", "setting": "EKVX; first compound 0.8 µM", "result": 0.715}, {"measurement": "relative viability", "setting": "EKVX; first compound 2.53 µM", "result": 0.85}, {"measurement": "relative viability", "setting": "NCI-H460; first compound 0.08 µM", "result": 0.323}, {"measurement": "relative viability", "setting": "NCI-H460; first compound 0.8 µM", "result": 0.342}, {"measurement": "relative viability", "setting": "NCI-H460; first compound 2.53 µM", "result": 0.402}, {"measurement": "relative viability", "setting": "LCLC-103H; first compound 0.08 µM", "result": 0.837}, {"measurement": "relative viability", "setting": "LCLC-103H; first compound 0.253 µM", "result": 0.673}, {"measurement": "relative viability", "setting": "LCLC-103H; first compound 0.8 µM", "result": 0.731}, {"measurement": "relative viability", "setting": "LCLC-103H; first compound 2.53 µM", "result": 0.818}, {"measurement": "relative viability", "setting": "LK-2; first compound 0.08 µM", "result": 0.728}, {"measurement": "relative viability", "setting": "LK-2; first compound 0.253 µM", "result": 0.543}, {"measurement": "relative viability", "setting": "LK-2; first compound 0.8 µM", "result": 0.611}, {"measurement": "relative viability", "setting": "LK-2; first compound 2.53 µM", "result": 0.78}, {"measurement": "relative viability", "setting": "NCI-H1650; first compound 0.08 µM", "result": 0.724}, {"measurement": "relative viability", "setting": "NCI-H1650; first compound 0.253 µM", "result": 0.737}, {"measurement": "relative viability", "setting": "NCI-H1650; first compound 0.8 µM", "result": 0.808}, {"measurement": "relative viability", "setting": "NCI-H1650; first compound 2.53 µM", "result": 0.868}, {"measurement": "relative viability", "setting": "NCI-H2087; first compound 0.08 µM", "result": 0.671}, {"measurement": "relative viability", "setting": "NCI-H2087; first compound 0.8 µM", "result": 0.635}, {"measurement": "relative viability", "setting": "NCI-H2087; first compound 2.53 µM", "result": 0.459}, {"measurement": "relative viability", "setting": "NCI-H1651; first compound 0.08 µM", "result": 0.175}, {"measurement": "relative viability", "setting": "NCI-H1651; first compound 0.253 µM", "result": 0.192}, {"measurement": "relative viability", "setting": "NCI-H1651; first compound 0.8 µM", "result": 0.2}, {"measurement": "relative viability", "setting": "NCI-H1651; first compound 2.53 µM", "result": 0.182}, {"measurement": "relative viability", "setting": "SW 1573; first compound 0.08 µM", "result": 0.532}, {"measurement": "relative viability", "setting": "SW 1573; first compound 0.253 µM", "result": 0.406}, {"measurement": "relative viability", "setting": "SW 1573; first compound 0.8 µM", "result": 0.494}, {"measurement": "relative viability", "setting": "SW 1573; first compound 2.53 µM", "result": 0.233}, {"measurement": "relative viability", "setting": "NCI-H2347; first compound 0.08 µM", "result": 0.623}, {"measurement": "relative viability", "setting": "NCI-H2347; first compound 0.253 µM", "result": 0.495}, {"measurement": "relative viability", "setting": "NCI-H2347; first compound 0.8 µM", "result": 0.663}, {"measurement": "relative viability", "setting": "NCI-H2347; first compound 2.53 µM", "result": 0.587}, {"measurement": "relative viability", "setting": "HCC-44; first compound 0.08 µM", "result": 0.934}, {"measurement": "relative viability", "setting": "HCC-44; first compound 0.253 µM", "result": 0.946}, {"measurement": "relative viability", "setting": "HCC-44; first compound 0.8 µM", "result": 1.04}, {"measurement": "relative viability", "setting": "HCC-44; first compound 2.53 µM", "result": 0.989}]}
